The term IC50 denotes the concentration that inhibits the measured activity by half.

The target in this assay is T1, SMYD3 (Homo sapiens, UniProt Q9H7B4).
T1 sequence (Q9H7B4 1-428): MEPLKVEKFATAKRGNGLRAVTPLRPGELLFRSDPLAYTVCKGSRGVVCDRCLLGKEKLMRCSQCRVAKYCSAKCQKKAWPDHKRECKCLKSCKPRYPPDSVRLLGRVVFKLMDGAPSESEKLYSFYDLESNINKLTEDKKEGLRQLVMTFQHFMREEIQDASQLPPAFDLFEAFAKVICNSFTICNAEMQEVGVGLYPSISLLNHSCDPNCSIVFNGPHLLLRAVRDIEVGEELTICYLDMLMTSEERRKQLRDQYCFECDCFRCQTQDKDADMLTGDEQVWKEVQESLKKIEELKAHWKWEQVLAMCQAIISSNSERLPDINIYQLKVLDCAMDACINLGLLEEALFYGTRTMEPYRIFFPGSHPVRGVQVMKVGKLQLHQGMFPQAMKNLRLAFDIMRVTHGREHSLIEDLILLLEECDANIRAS
The assay is described as follows: SMYD3 biochemical assay (MTase-Glo, MAP3K2 peptide substrate). Particulars: Table 3; MTase assay, MAP3K2 peptide substrate; read-out: IC50. An outline of the steps:
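Luminescent readout of SAH production (coupled SAH→ATP conversion, MTase-Glo) after SMYD3 reacted 30 min at room temperature with 1.0 µM SAM and 10 µM MAP3K2 peptide, both final. Non-linear regression gave IC50 values.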
On to `CCCOC(=O)N1CCN(C(=O)c2ccc3c(Cl)cc(-c4cc(F)c(O)c(F)c4)nc3c2)C[C@H]1C` [B217, Propyl (R)-4-(4-chloro-2-(3,5-difluoro-4-hydroxyphenyl)quinoline-7-carbonyl)-2-methylpiperazine-1-carboxylate], for which the half-inhibitory concentration (IC50) worked out at 130 nM.

For the compound `CCCOC(=O)N1CCN(C(=O)c2ccc3c(Cl)cc(-c4ccc(O)c(C)c4)nc3c2)C[C@H]1C` [B218, Propyl (R)-4-(4-chloro-2-(4-hydroxy-3-methylphenyl)quinoline-7-carbonyl)-2-methylpiperazine-1-carboxylate], the IC50 amounted to 220 nM.

For the compound `CCCOC(=O)N1CCN(C(=O)c2ccc3c(Cl)cc(-c4cnn(C)c4)nc3c2)[C@@H](C)C1` [B219, Propyl (S)-4-(4-chloro-2-(1-methyl-1H-pyrazol-4-yl)quinoline-7-carbonyl)-3-methylpiperazine-1-carboxylate], the IC50 amounted to 230 nM.

As to `CCCOC(=O)N1CCN(C(=O)c2ccc3c(Cl)cc(-c4cc(F)c(O)c(F)c4)nc3c2)[C@@H](C)C1` [B220, Propyl (S)-4-(4-chloro-2-(3,5-difluoro-4-hydroxyphenyl)quinoline-7-carbonyl)-3-methylpiperazine-1-carboxylate], the IC50 is 350 nM.

`CCCOC(=O)N1CCN(C(=O)c2ccc3c(Cl)cc(-c4ccnc5[nH]ccc45)nc3c2)CC1` [B221, Propyl 4-(4-chloro-2-(1H-pyrrolo[2,3-b]pyridin-4-yl)quinoline-7-carbonyl)piperazine-1-carboxylate]: the 50% inhibitory concentration (IC50) was 800 nM.

Consider `CCCOC(=O)N1CCN(C(=O)c2ccc3c(Cl)cc(-c4ccc5[nH]c(C)nc5c4)nc3c2)CC1` [B222, Propyl 4-(4-chloro-2-(2-methyl-1H-benzo[d]imidazol-5-yl)quinoline-7-carbonyl)piperazine-1-carboxylate], for which the IC50 turned out to be 46 nM.

On to `CCCOC(=O)N1CCN(C(=O)c2ccc3c(Cl)cc(-c4ccc(COCCOC)cc4)nc3c2)CC1` [B224, Propyl 4-(4-chloro-2-(4-((2-methoxyethoxy)methyl)phenyl)quinoline-7-carbonyl)piperazine-1-carboxylate], for which the IC50 is 800 nM.

On to `CCCOC(=O)N1CCN(C(=O)c2ccc3c(Cl)cc(-c4ccc(O)c(C)c4)nc3c2)[C@@H](C)C1` [B225, Propyl (S)-4-(4-chloro-2-(4-hydroxy-3-methylphenyl)quinoline-7-carbonyl)-3-methylpiperazine-1-carboxylate], for which the half-maximal inhibitory concentration (IC50) was found to be 230 nM.

For the compound `CCCCC(=O)N1CCN(C(=O)c2ccc3c(Cl)ccnc3c2)CC1` [B226, 1-(4-(4-chloroquinoline-7-carbonyl)piperazin-1-yl)pentan-1-one], the IC50 stood at 7900 nM.

In the case of `CCCOC(=O)N1CCN(C(=O)c2ccc3c(Cl)cc(-c4cc(C)n(C)c4CN)nc3c2)CC1` [B227, Propyl 4-(2-(2-(aminomethyl)-1,5-dimethyl-1H-pyrrol-3-yl)-4-chloroquinoline-7-carbonyl)piperazine-1-carboxylate], the IC50 came to 770 nM.

In the case of `CCCOC(=O)N1CCN(C(=O)c2ccc3c(Cl)cc(-c4ccn(C(=O)OC)c4)nc3c2)CC1` [B228, Propyl 4-(4-chloro-2-(1-(methoxycarbonyl)-1H-pyrrol-3-yl)quinoline-7-carbonyl)piperazine-1-carboxylate], the IC50 was determined as 300 nM.

As to `CCCOC(=O)N1CCN(C(=O)c2ccc3c(Cl)cc(-c4cnn(C(C)C)c4)nc3c2)CC1` [B229, Propyl 4-(4-chloro-2-(1-isopropyl-1H-pyrazol-4-yl)quinoline-7-carbonyl)piperazine-1-carboxylate], the IC50 was found to be 1100 nM.

Turning to `CCCOC(=O)N1CCN(C(=O)c2ccc3c(Cl)cc(-c4cnn(C(F)F)c4)nc3c2)CC1` [B230, Propyl 4-(4-chloro-2-(1-(difluoromethyl)-1H-pyrazol-4-yl)quinoline-7-carbonyl)piperazine-1-carboxylate], the IC50 is 700 nM.

Regarding `CCCOC(=O)N1CCN(C(=O)c2ccc3c(Cl)cc(-c4ccn(S(=O)(=O)N(C)C)c4)nc3c2)CC1` [B231, Propyl 4-(4-chloro-2-(1-(N,N-dimethylsulfamoyl)-1H-pyrrol-3-yl)quinoline-7-carbonyl)piperazine-1-carboxylate], the IC50 is 630 nM.

As to `CCCOC(=O)N1CCN(C(=O)c2ccc3c(Cl)cc(-c4ccc5c(c4)CNC5=O)nc3c2)CC1` [B232, Propyl 4-(4-chloro-2-(1-oxoisoindolin-5-yl)quinoline-7-carbonyl)piperazine-1-carboxylate], the IC50 was 150 nM.

`CNC(=O)c1ccc(-c2cc(Cl)c3ccc(C(=O)N4CCN(C(=O)OCCCF)[C@H](C)C4)cc3n2)cc1` [B233, 3-Fluoropropyl (R)-4-(4-chloro-2-(4-(methylcarbamoyl)phenyl)quinoline-7-carbonyl)-2-methylpiperazine-1-carboxylate]: the IC50 was found to be 160 nM.

Consider `C[C@@H]1CN(C(=O)c2ccc3c(Cl)cc(-c4ccn(C)c4)nc3c2)CCN1C(=O)OCCCF` [B234, 3-Fluoropropyl (R)-4-(4-chloro-2-(1-methyl-1H-pyrrol-3-yl)quinoline-7-carbonyl)-2-methylpiperazine-1-carboxylate], for which the IC50 is 98 nM.

`C[C@@H]1CN(C(=O)c2ccc3c(Cl)cc(-c4cc(F)c(O)c(F)c4)nc3c2)CCN1C(=O)OCCCF` [B235, 3-Fluoropropyl (R)-4-(4-chloro-2-(3,5-difluoro-4-hydroxyphenyl)quinoline-7-carbonyl)-2-methylpiperazine-1-carboxylate]: the 50% inhibitory concentration (IC50) stood at 230 nM.

For the compound `CCCOC(=O)N1CCN(C(=O)c2ccc3c(Cl)cc(-c4ccc(C(=O)NC)c(C)c4)nc3c2)CC1` [B236, Propyl 4-(4-chloro-2-(3-methyl-4-(methylcarbamoyl)phenyl)quinoline-7-carbonyl)piperazine-1-carboxylate], the IC50 turned out to be 360 nM.

For the compound `CCCOC(=O)N1CCN(C(=O)c2ccc3c(Cl)cc(-c4ccc5oc(C)nc5c4)nc3c2)CC1` [B237, Propyl 4-(4-chloro-2-(2-methylbenzo[d]oxazol-5-yl)quinoline-7-carbonyl)piperazine-1-carboxylate], the IC50 is 200 nM.

With `CCCOC(=O)N1CCN(C(=O)c2ccc3c(Cl)cc(-c4ccc(N5CCCC5)c(F)c4)nc3c2)CC1` [B238, Propyl 4-(4-chloro-2-(3-fluoro-4-(pyrrolidin-1-yl)phenyl)quinoline-7-carbonyl)piperazine-1-carboxylate], the half-maximal inhibitory concentration (IC50) is 3500 nM.

For `CCCOC(=O)N1CCN(C(=O)c2ccc3c(Cl)cc(-c4ccc(C(C)OCC)cc4)nc3c2)CC1` (stereo not shown) [B239, Propyl 4-(4-chloro-2-(4-(1-ethoxyethyl)phenyl)quinoline-7-carbonyl)piperazine-1-carboxylate], the IC50 came out at 1300 nM.

For `CCCOC(=O)N1CCN(C(=O)c2ccc3c(Cl)cc(-c4ccc(C(=O)NC)c(F)c4)nc3c2)[C@@H](C)C1` [B240, Propyl (S)-4-(4-chloro-2-(3-fluoro-4-(methylcarbamoyl)phenyl)quinoline-7-carbonyl)-3-methylpiperazine-1-carboxylate], the IC50 turned out to be 250 nM.

`CCCOC(=O)N1CCN(C(=O)c2ccc3c(Cl)cc(-c4ccc5ocnc5c4)nc3c2)[C@@H](C)C1` [B241, Propyl (S)-4-(2-(benzo[d]oxazol-5-yl)-4-chloroquinoline-7-carbonyl)-3-methylpiperazine-1-carboxylate]: the IC50 was 240 nM.

Consider `CCCOC(=O)N1CCN(C(=O)c2ccc3c(Cl)cc(-c4ccc(COCC5CC5)cc4)nc3c2)CC1` [B242, Propyl 4-(4-chloro-2-(4-((cyclopropylmethoxy)methyl)phenyl)quinoline-7-carbonyl)piperazine-1-carboxylate], for which the IC50 amounted to 670 nM.

On to `CCCOC(=O)N1CCN(C(=O)c2ccc3c(Cl)cc(-c4ccc5ocnc5c4)nc3c2)C[C@H]1C` [B243, Propyl (R)-4-(2-(benzo[d]oxazol-5-yl)-4-chloroquinoline-7-carbonyl)-2-methylpiperazine-1-carboxylate], for which the IC50 was 63 nM.

Turning to `CCCOC(=O)N1CCN(C(=O)c2ccc3c(Cl)cc(-c4ccc(C(C)(C)O)cc4)nc3c2)CC1` [B244, Propyl 4-(4-chloro-2-(4-(2-hydroxypropan-2-yl)phenyl)quinoline-7-carbonyl)piperazine-1-carboxylate], the IC50 was determined as 140 nM.

In the case of `CNC(=O)c1ccc(-c2cc(Cl)c3ccc(C(=O)N4CCN(C(=O)OCC(C)C)CC4)cc3n2)cc1` [B245, Isobutyl 4-(4-chloro-2-(4-(methylcarbamoyl)phenyl)quinoline-7-carbonyl)piperazine-1-carboxylate], the half-inhibitory concentration (IC50) amounted to 1010 nM.

As to `CC(C)COC(=O)N1CCN(C(=O)c2ccc3c(Cl)cc(-c4ccn(C)c4)nc3c2)CC1` [B246, Isobutyl 4-(4-chloro-2-(1-methyl-1H-pyrrol-3-yl)quinoline-7-carbonyl)piperazine-1-carboxylate], the IC50 was determined as 270 nM.

With `CNC(=O)c1ccc(-c2cc(Cl)c3ccc(C(=O)N4CCN(C(=O)OCCF)CC4)cc3n2)cc1` [B247, 2-Fluoroethyl 4-(4-chloro-2-(4-(methylcarbamoyl)phenyl)quinoline-7-carbonyl)piperazine-1-carboxylate], the IC50 came out at 7400 nM.

On to `Cn1ccc(-c2cc(Cl)c3ccc(C(=O)N4CCN(C(=O)OCCF)CC4)cc3n2)c1` [B248, 2-Fluoroethyl 4-(4-chloro-2-(1-methyl-1H-pyrrol-3-yl)quinoline-7-carbonyl)piperazine-1-carboxylate], for which the IC50 stood at 140 nM.

These data come from patent publication US20190071416A1, “COMPOUNDS FOR TREATMENT OF CANCER AND EPIGENETICS” (Agency For Science, Technology and Research, priority 2015, published 2019).
